# Data published in ChEMBL document CHEMBL5584249, “Machine learning-based QSAR and LB-PaCS-MD guided design of SARS-CoV-2 main protease inhibitors” (Bioorg Med Chem Lett, 2024).
# Biological target: Replicase polyprotein 1ab (Severe acute respiratory syndrome coronavirus 2, UniProt P0DTD1)
# Experiment: Inhibition of recombinant SARS CoV-2 main protease by FRET assay
Structure (SMILES),pIC50,IC50 (read-out: IC50),IC50 (read-out: pIC50 (converted))
Cc1ccc(-n2[se]c3ccccc3c2=O)cc1,5.64,–,–
COc1ccc(-n2[se]c3ccccc3c2=O)cc1,5.903,–,–
O=c1c2ccccc2[se]n1-c1ccc(F)cc1,5.556,–,–
O=c1c2ccccc2[se]n1-c1cc(Cl)cc(Cl)c1,6.194,–,–
N#Cc1cccc(-n2[se]c3ccccc3c2=O)c1,6.42,–,–
O=c1c2ccccc2[se]n1-c1c(F)cccc1F,5.68,–,–
O=c1c2ccccc2[se]n1-c1ccc(C(F)(F)F)cc1,–,0.9 µM,0.883 µM
O=c1c2ccccc2[se]n1Cc1ccc(F)cc1,6,–,–
CCc1ccc(-n2[se]c3ccccc3c2=O)cc1,5.209,–,–
COc1ccc(F)cc1-n1[se]c2ccccc2c1=O,5.481,–,–
COc1cc(F)ccc1-n1[se]c2ccccc2c1=O,5.745,–,–
O=c1c2ccccc2[se]n1-c1ccc(Br)cc1,5.556,–,–
O=c1c2ccccc2[se]n1-c1cccc(Cl)c1,6.167,–,–
O=c1c2ccccc2[se]n1-c1cccc(C(F)(F)F)c1,5.558,–,–
COc1ccc(Cn2[se]c3ccccc3c2=O)c(OC)c1,6.215,–,–
Cc1ccccc1-n1[se]c2ccccc2c1=O,5.129,–,–
COc1ccc2[se]n(-c3ccccc3)c(=O)c2c1,–,6.4 µM,6.18 µM
CCCCCCCc1ccc(-n2[se]c3ccccc3c2=O)cc1,–,5.56 µM,–
CCCCCCCCc1ccc(-n2[se]c3ccccc3c2=O)cc1,–,2.69 µM,–
